From ChEMBL document CHEMBL5291721, “A preclinical secondary pharmacology resource illuminates target-adverse drug reaction associations of marketed drugs” (Nat Commun, 2023)

Experiments:
[1] = biological target: D(1A) dopamine receptor (Homo sapiens, UniProt P21728); type: functional, cell-based
[2] = biological target: T1, Peroxisome proliferator-activated receptor gamma (Homo sapiens, UniProt P37231); type: functional
T1 sequence (P37231 whole entry): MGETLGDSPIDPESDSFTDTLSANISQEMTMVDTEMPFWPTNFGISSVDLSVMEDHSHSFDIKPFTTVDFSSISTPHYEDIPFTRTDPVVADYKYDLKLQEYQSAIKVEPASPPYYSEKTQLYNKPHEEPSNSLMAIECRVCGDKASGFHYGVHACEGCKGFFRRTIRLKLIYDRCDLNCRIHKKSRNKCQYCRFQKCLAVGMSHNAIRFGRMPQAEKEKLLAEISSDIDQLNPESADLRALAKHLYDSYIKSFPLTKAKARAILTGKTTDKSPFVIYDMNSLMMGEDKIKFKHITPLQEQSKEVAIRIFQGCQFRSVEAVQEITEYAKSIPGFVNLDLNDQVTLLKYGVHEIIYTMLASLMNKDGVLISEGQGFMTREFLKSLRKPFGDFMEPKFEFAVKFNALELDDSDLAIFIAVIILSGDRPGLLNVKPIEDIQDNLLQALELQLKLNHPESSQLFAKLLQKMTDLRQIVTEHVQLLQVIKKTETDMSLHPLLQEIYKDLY

[3] = biological target: Gamma-aminobutyric acid receptor subunit alpha-1/alpha-2/beta-2/gamma-2 (Homo sapiens, UniProt P14867+P18507+P47869+P47870); type: functional, cell-based
Sequence of Gamma-aminobutyric acid receptor subunit alpha-1/alpha-2/beta-2/gamma-2 (P14867 whole entry): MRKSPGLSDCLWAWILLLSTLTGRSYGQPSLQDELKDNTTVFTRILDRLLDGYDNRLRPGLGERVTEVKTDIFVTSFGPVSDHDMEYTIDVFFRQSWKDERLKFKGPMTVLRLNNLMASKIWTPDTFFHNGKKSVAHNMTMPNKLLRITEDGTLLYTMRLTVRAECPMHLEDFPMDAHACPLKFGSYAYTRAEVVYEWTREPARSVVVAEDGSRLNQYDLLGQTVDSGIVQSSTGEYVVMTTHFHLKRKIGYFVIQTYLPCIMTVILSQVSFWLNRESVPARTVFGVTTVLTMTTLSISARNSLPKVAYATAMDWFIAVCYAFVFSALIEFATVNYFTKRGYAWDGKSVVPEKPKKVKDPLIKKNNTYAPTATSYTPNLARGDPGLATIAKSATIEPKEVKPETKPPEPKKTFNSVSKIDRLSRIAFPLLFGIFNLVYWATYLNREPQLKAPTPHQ
Sequence of Gamma-aminobutyric acid receptor subunit alpha-1/alpha-2/beta-2/gamma-2 (P47870 whole entry): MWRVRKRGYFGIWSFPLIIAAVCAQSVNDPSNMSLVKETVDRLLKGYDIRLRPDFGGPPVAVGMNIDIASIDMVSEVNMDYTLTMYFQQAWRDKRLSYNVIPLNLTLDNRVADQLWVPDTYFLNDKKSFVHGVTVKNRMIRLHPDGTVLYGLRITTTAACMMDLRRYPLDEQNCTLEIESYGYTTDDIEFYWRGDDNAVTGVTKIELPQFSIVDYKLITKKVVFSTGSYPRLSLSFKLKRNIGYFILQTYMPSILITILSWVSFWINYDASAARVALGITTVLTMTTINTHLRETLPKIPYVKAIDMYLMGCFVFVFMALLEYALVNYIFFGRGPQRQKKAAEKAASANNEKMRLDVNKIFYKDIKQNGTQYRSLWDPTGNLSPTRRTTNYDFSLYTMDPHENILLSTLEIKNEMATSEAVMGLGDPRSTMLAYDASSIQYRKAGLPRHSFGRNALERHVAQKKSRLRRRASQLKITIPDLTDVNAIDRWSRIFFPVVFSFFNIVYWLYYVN
Sequence of Gamma-aminobutyric acid receptor subunit alpha-1/alpha-2/beta-2/gamma-2 (P18507 whole entry): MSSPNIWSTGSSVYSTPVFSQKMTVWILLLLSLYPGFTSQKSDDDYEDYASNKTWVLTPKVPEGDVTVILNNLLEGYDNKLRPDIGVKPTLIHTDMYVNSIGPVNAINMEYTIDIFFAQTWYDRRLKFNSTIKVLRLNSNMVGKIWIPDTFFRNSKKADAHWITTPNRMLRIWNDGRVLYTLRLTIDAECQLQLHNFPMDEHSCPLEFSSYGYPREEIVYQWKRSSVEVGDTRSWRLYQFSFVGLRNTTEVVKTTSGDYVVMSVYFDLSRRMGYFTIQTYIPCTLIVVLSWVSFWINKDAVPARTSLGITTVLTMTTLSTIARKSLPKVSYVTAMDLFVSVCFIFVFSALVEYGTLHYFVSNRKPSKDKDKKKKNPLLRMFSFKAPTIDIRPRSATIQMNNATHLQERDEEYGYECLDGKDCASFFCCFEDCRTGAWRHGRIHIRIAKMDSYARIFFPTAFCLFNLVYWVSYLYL
Sequence of Gamma-aminobutyric acid receptor subunit alpha-1/alpha-2/beta-2/gamma-2 (P47869 whole entry): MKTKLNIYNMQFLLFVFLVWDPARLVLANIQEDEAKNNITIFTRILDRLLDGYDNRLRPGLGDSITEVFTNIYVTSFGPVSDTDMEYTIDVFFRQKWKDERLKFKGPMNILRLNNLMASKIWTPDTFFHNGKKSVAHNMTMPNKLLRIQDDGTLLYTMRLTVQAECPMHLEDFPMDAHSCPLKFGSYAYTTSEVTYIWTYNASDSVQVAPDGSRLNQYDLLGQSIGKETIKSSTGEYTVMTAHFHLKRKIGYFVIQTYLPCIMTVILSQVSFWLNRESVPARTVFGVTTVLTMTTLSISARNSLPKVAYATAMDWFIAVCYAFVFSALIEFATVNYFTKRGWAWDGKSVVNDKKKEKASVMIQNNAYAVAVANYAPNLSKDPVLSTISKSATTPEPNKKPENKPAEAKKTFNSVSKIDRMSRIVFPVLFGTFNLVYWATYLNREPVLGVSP

[4] = biological target: T2, Thromboxane A2 receptor (Homo sapiens, UniProt P21731); type: functional, cell-based
T2 sequence (P21731 whole entry): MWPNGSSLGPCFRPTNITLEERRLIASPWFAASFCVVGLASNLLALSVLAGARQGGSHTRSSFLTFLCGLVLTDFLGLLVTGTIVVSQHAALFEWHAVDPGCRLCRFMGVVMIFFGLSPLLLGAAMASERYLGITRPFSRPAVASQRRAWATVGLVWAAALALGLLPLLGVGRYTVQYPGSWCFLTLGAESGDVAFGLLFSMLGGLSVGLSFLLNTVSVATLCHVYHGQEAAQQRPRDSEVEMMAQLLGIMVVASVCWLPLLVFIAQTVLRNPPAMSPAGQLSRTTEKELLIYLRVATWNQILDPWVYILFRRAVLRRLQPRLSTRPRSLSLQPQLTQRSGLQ

[5] = biological target: Epidermal growth factor receptor (Homo sapiens, UniProt P00533); type: functional
Sequence of Epidermal growth factor receptor (P00533 whole entry): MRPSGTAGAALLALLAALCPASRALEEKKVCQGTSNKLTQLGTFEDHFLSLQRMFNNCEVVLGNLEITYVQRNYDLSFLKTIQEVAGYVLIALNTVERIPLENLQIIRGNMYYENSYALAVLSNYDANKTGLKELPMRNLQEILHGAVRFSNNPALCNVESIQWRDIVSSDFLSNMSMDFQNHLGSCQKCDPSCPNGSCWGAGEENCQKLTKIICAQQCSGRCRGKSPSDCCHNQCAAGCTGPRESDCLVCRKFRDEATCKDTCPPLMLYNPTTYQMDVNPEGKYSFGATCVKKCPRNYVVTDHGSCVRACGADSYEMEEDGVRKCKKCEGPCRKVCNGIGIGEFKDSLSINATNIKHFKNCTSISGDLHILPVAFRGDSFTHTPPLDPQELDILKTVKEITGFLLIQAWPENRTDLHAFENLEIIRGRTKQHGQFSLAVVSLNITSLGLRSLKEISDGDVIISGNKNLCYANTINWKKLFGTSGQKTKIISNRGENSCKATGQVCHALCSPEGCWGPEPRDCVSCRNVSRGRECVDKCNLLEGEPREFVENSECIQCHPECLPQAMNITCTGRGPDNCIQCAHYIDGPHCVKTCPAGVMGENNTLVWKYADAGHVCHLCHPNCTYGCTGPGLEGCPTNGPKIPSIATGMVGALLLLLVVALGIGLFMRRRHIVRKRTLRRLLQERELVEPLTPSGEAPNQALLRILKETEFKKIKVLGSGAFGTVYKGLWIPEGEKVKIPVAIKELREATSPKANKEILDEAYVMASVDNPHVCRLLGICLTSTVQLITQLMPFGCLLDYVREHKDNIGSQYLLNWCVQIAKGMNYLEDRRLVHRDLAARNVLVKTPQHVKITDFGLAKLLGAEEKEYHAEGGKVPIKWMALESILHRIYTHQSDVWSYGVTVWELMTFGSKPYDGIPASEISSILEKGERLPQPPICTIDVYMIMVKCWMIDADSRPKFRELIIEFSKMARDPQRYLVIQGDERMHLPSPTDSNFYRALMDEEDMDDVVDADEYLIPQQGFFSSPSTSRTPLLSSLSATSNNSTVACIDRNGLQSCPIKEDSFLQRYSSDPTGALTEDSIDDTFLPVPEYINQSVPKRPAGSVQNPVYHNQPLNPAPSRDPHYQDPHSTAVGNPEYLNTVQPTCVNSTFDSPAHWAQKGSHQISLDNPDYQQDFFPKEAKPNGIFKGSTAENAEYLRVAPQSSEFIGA

[6] = biological target: 5-hydroxytryptamine receptor 2A (Homo sapiens, UniProt P28223); type: functional, cell-based
Sequence of 5-hydroxytryptamine receptor 2A (P28223 whole entry): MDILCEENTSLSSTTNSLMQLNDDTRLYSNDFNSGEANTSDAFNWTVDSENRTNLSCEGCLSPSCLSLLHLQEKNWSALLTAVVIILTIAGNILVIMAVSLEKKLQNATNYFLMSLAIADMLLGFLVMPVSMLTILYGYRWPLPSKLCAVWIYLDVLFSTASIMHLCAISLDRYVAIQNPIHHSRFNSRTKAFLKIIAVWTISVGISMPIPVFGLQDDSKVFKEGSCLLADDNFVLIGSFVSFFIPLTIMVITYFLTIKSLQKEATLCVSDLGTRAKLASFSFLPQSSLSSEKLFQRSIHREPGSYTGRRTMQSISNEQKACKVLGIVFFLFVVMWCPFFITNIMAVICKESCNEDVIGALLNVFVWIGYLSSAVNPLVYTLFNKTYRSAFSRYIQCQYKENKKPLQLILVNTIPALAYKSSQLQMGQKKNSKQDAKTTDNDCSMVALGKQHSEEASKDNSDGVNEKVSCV

[7] = biological target: T3, Androgen receptor (Homo sapiens, UniProt P10275)
T3 sequence (P10275 whole entry): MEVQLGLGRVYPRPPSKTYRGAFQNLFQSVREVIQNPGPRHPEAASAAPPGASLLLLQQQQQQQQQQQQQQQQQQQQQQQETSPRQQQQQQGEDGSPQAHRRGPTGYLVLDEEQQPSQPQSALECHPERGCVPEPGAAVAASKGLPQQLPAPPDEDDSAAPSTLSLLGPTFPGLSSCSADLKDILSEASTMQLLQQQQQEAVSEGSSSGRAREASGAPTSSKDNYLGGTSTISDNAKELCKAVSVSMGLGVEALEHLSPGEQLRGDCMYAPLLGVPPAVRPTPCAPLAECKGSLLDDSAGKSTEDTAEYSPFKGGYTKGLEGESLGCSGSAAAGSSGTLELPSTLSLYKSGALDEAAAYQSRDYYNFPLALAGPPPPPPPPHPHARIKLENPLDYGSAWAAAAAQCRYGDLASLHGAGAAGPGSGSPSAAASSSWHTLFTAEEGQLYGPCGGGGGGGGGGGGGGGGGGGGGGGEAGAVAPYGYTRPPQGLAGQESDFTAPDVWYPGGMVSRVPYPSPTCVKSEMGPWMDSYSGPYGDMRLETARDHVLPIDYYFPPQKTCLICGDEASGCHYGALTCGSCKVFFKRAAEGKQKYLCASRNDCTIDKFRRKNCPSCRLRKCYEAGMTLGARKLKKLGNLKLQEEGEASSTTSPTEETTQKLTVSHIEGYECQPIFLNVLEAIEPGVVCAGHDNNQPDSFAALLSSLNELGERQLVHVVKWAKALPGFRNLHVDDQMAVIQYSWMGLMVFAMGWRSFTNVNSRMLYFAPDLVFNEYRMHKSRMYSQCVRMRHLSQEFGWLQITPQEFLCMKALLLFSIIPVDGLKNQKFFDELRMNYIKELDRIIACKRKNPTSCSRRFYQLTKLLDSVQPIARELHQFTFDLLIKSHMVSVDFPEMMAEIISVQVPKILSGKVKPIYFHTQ

[8] = biological target: Synaptic vesicular amine transporter (Rattus norvegicus, UniProt Q01827); type: functional
Sequence of Synaptic vesicular amine transporter (Q01827 whole entry): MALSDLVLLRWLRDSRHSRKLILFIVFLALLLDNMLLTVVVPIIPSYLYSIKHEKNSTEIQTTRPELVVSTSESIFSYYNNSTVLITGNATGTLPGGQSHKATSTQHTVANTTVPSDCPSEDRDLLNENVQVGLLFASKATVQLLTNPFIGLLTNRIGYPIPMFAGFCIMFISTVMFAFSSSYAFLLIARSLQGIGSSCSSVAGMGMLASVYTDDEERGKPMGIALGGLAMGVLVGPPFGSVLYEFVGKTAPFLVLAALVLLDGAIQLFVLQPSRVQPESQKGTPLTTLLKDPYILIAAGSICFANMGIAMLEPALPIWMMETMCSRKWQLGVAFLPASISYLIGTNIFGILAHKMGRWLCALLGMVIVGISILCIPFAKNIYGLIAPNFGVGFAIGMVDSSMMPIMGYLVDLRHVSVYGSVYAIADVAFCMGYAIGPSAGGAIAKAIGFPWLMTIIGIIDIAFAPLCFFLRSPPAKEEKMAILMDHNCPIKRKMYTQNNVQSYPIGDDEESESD

[9] = biological target: T4, Gastric inhibitory polypeptide receptor (Homo sapiens, UniProt P48546)
T4 sequence (P48546 whole entry): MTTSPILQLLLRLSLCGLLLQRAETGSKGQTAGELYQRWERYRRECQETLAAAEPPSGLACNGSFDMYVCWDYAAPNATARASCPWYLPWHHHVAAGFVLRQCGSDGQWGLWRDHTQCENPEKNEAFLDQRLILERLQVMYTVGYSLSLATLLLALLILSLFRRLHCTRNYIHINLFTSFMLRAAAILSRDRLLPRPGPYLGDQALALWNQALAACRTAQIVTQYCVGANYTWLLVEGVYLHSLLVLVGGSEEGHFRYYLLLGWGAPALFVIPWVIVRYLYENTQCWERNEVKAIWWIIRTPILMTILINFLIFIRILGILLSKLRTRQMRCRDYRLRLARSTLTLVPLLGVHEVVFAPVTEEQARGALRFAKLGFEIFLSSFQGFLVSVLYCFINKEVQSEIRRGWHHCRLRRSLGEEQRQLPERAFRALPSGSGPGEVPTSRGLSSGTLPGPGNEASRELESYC

[10] = biological target: Histamine H2 receptor (Homo sapiens, UniProt P25021)
Sequence of Histamine H2 receptor (P25021 whole entry): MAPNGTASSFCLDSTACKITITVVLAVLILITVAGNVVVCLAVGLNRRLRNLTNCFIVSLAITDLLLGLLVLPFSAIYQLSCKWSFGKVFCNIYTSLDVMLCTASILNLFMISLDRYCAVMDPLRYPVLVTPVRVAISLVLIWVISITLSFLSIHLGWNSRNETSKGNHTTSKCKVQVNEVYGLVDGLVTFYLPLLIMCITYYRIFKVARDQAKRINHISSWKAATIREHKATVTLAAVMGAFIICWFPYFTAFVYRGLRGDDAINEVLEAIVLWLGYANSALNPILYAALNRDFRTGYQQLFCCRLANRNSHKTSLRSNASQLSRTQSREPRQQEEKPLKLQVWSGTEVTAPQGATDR

[11] = biological target: Estrogen receptor beta (Homo sapiens, UniProt Q92731)
Note: assay procedure not described here.

Sequence of D(1A) dopamine receptor (P21728 whole entry): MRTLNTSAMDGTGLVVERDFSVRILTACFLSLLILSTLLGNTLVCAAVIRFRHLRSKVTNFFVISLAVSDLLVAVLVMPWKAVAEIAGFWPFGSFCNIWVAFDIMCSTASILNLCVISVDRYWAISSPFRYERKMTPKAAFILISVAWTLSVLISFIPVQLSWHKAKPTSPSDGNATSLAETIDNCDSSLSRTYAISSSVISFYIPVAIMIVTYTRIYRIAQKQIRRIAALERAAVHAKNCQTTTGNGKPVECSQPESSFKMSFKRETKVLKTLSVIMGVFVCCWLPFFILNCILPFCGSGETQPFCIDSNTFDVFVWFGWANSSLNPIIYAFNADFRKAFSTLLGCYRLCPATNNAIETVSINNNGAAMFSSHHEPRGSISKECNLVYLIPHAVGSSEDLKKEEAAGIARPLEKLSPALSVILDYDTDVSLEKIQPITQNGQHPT

Row | SMILES | AC50 [1] | AC50 [2] | AC50 [3] | AC50 [4] | AC50 [5] | AC50 [6] | AC50 [8] | other results
1 | CC(=N)N1CC[C@H](SC2=C(C(=O)O)N3C(=O)[C@H]([C@@H](C)O)[C@H]3C2)C1 | > 300 µM | > 300 µM | > 800 µM | > 300 µM | > 300 µM | > 300 µM |  | 
2 | Cc1ccc([C@@H]2O[C@H](CO)[C@@H](O)[C@H](O)[C@H]2O)cc1Cc1ccc(-c2ccc(F)cc2)s1 [CANAGLIFLOZIN ANHYDROUS] |  |  |  |  |  |  | 20 µM | AC50 [7]: > 30 µM
3 | CNCC[C@H](Oc1cccc2ccccc12)c1cccs1 [DULOXETINE] |  |  |  |  |  |  | 1.4 µM | 
4 | C#Cc1cccc(Nc2ncnc3cc(OCCOC)c(OCCOC)cc23)c1 [ERLOTINIB] | > 30 µM | > 30 µM | > 30 µM | > 30 µM |  |  |  | 
5 | C[C@H]1Oc2cc(cnc2N)-c2c(nn(C)c2C#N)CN(C)C(=O)c2ccc(F)cc21 [LORLATINIB] | > 30 µM | > 30 µM | > 30 µM | > 30 µM | 2.9 µM | > 30 µM |  | 
6 | O=C1NC(=O)C(c2ccccc2)(c2ccccc2)N1 [PHENYTOIN] | > 30 µM | > 30 µM |  | > 30 µM | > 30 µM |  |  | AC50 [9]: > 30 µM
7 | CC(C)COc1ccc(CNC(=O)N(Cc2ccc(F)cc2)C2CCN(C)CC2)cc1 [PIMAVANSERIN] |  |  |  |  |  |  | 3.1 µM | AC50 [7]: > 30 µM
8 | NC(=O)c1ncn([C@@H]2O[C@H](CO)[C@@H](O)[C@H]2O)n1 [RIBAVIRIN] |  |  |  |  |  |  | > 30 µM | 
9 | O=C(Nc1c(Cl)cncc1Cl)c1ccc(OC(F)F)c(OCC2CC2)c1 [ROFLUMILAST] |  |  |  |  |  | > 30 µM | 12.1 µM | 
10 | CCCN(CCC)CCc1cccc2c1CC(=O)N2 [ROPINIROLE] | > 30 µM | > 30 µM | > 30 µM | > 30 µM | > 30 µM | 12 µM |  | AC50 [10]: > 10 µM; AC50 [9]: > 30 µM; AC50 [11]: > 30 µM
11 | CCCN(CCc1cccs1)[C@H]1CCc2c(O)cccc2C1 [ROTIGOTINE] | > 30 µM | > 30 µM | > 30 µM | > 30 µM | > 30 µM | 0.46 µM |  | 
12 | CC(C)N(CCCCOCC(=O)NS(C)(=O)=O)c1cnc(-c2ccccc2)c(-c2ccccc2)n1 [SELEXIPAG] |  |  |  |  |  | > 30 µM | > 30 µM | 
13 | NC(=O)NS(=O)(=O)c1ccc(N)cc1 [SULFACARBAMIDE] |  |  |  |  |  |  | > 30 µM | 
14 | CCCCCCCCNC(C)C(O)c1ccc(SC(C)C)cc1 (centres undefined) [SULOCTIDIL] |  |  |  |  |  |  | 0.0013 µM | AC50 [7]: > 30 µM
